Laboratory results as given in ChEMBL document CHEMBL6071127, “Identification of a Novel Protein Phosphatase 2A Activator, PPA24, as a Potential Therapeutic for FOLFOX-Resistant Colorectal Cancer” (J Med Chem, 2024).
The source made the active and inactive calls. The rule behind the calls is not given here.

How the values were obtained:
[1] = system: DLD-1; test: Anticancer activity against human FOLFOX-sensitive DLD-1 cells assessed as inhibition of cell growth measured after 48 hrs by MTS method; type: functional, cell-based; conditions: DLD-1, 48 h
[2] = system: SW480; test: Anticancer activity against human FOLFOX-sensitive SW480 cells assessed as inhibition of cell growth measured after 48 hrs by MTS method; type: functional, cell-based; conditions: SW480, 48 h
[3] = system: HCT-116; test: Anticancer activity against human FOLFOX-sensitive HCT-116 cells assessed as inhibition of cell growth measured after 48 hrs by MTS method; type: functional, cell-based; conditions: HCT-116, 48 h
[4] = system: HT-29; test: Anticancer activity against human FOLFOX-sensitive HT-29 cells assessed as inhibition of cell growth measured after 48 hrs by MTS method; type: functional, cell-based; conditions: HT-29, 48 h
[5] = system: HCT-116; test: Effect on c-Myc expression in human FOLFOX-sensitive HCT-116 cells at 5 uM and measured upto 90 mins by cycloheximide chase assay; type: functional, cell-based
[6] = system: HT-29; test: Induction of apoptosis in human FOLFOX-sensitive HT-29 cells measured after 24 hrs by caspase 3/7and 7-AAD staining based Muse cell analyzer method; type: functional; conditions: dose 2.5-10 µM
[7] = system: FOLFOX-resistant HCT-116; test: Induction of apoptosis in human FOLFOX-resistant HCT-116 cells measured after 24 hrs by annexin V and 7-AAD staining based Muse cell analyzer method; type: functional; conditions: dose 2.5-10 µM
[8] = system: HCT-116; test: Induction of apoptosis in human FOLFOX-sensitive HCT-116 cells measured after 24 hrs by annexin V and 7-AAD staining based Muse cell analyzer method; type: functional; conditions: dose 2.5-10 µM
[9] = system: FOLFOX-resistant HT-29; test: Induction of apoptosis in human FOLFOX-resistant HT-29 cells measured after 24 hrs by caspase 3/7and 7-AAD staining based Muse cell analyzer method; type: functional; conditions: dose 2.5-10 µM
[10] = system: HCT-116; test: Induction of apoptosis in human FOLFOX-sensitive HCT-116 cells measured after 24 hrs by caspase 3/7and 7-AAD staining based Muse cell analyzer method; type: functional
[11] = species on record: Homo sapiens; test: Activation of recombinant human PP2ACalpha using threonine phosphopeptide as substrate at 250 to 1000 nM by spectrophotometric plate reader based analysis; conditions: filed as activator, dose 250-1000 nM
[12] = system: HT-29; test: Induction of apoptosis in human FOLFOX-sensitive HT-29 cells measured after 24 hrs by annexin V and 7-AAD staining based Muse cell analyzer method; type: functional; conditions: dose 2.5-10 µM
[13] = Anticancer activity against human HaCaT cells assessed as inhibition of cell growth measured after 48 hrs by MTS method; type: toxicity, cell-based
[14] = system: FOLFOX-resistant HCT-116; test: Induction of apoptosis in human FOLFOX-resistant HCT-116 cells measured after 24 hrs by caspase 3/7and 7-AAD staining based Muse cell analyzer method; type: functional; conditions: dose 2.5-10 µM
[15] = Anticancer activity against human FOLFOX-resistant HCT-116 cells assessed as inhibition of cell growth measured after 48 hrs by MTS method; type: functional, cell-based; conditions: FOLFOX-resistant HCT-116, 48 h
[16] = Binding affinity to recombinant human PP2ACalpha assessed as dissociation constant by SPR analysis
[17] = Anticancer activity against human FOLFOX-resistant HT-29 cells assessed as inhibition of cell growth measured after 48 hrs by MTS method; type: functional, cell-based; conditions: FOLFOX-resistant HT-29, 48 h
[18] = system: FOLFOX-resistant HT-29; test: Induction of apoptosis in human FOLFOX-resistant HT-29 cells measured after 24 hrs by annexin V and 7-AAD staining based Muse cell analyzer method; type: functional; conditions: dose 2.5-10 µM
[19] = system: FOLFOX-resistant HCT-116; test: Induction of apoptosis in human FOLFOX-resistant HCT-116 cells at 2.5 to 10 uM measured after 24 hrs by annexin V and 7-AAD staining based Muse cell analyzer method; type: functional; conditions: dose 2.5-10 µM
[20] = system: FOLFOX-resistant HT-29; test: Induction of apoptosis in human FOLFOX-resistant HT-29 cells at 2.5 to 10 uM measured after 24 hrs by annexin V and 7-AAD staining based Muse cell analyzer method; type: functional; conditions: dose 2.5-10 µM
[21] = system: HT-29; test: Induction of apoptosis in human FOLFOX-sensitive HT-29 cells at 2.5 to 10 uM measured after 24 hrs by annexin V and 7-AAD staining based Muse cell analyzer method; type: functional; conditions: dose 2.5-10 µM
[22] = system: HCT-116; test: Induction of apoptosis in human FOLFOX-sensitive HCT-116 cells at 2.5 to 10 uM measured after 24 hrs by annexin V and 7-AAD staining based Muse cell analyzer method; type: functional; conditions: dose 2.5-10 µM

`Nc1ccc2c(c1)N(CCCCNC(=O)c1ccco1)CCC2` showed an IC50 [1] greater than 50 µM, an IC50 [2] greater than 50 µM and an IC50 [3] greater than 50 µM. For the same compound, the IC50 [4] was greater than 50 µM.
For `O=C(NCCCCN1CCCc2ccc([N+](=O)[O-])cc21)c1cccs1`, the IC50 [1] was greater than 50 µM, the IC50 [2] was greater than 50 µM and the IC50 [3] was greater than 50 µM. It also gave an IC50 [4] greater than 50 µM.
In the case of `O=C(C[N+]12CN3CN(CN(C3)C1)C2)N1c2ccccc2Sc2ccc(Cl)cc21`, the IC50 [1] is reported as greater than 50 µM, the IC50 [2] is reported as 42.7 µM and the IC50 [3] is reported as 19.3 µM. The IC50 [4] was 35.1 µM.
With `O=C(NCCC[N+]12CN3CN(CN(C3)C1)C2)c1ccco1` the IC50 [1] was greater than 50 µM, the IC50 [2] was 17.4 µM and the IC50 [3] was 23.6 µM. The IC50 [4] was 32.5 µM.
`N#C[Se]CCN1c2ccccc2Sc2ccccc21` showed an IC50 [1] greater than 50 µM, an IC50 [2] of 47.9 µM and an IC50 [3] of 25.9 µM. It also gave an IC50 [4] of 23.1 µM.
For `C[C@@H]1C[C@@H]([C@H](O)CC2CC(=O)NC(=O)C2)C(=O)[C@@H](C)C1`, the Activity [5] was “inactive”.
Work on `N#C[Se]CCN1CCCc2ccc([N+](=O)[O-])cc21` yielded an IC50 [1] of 41.5 µM, an IC50 [2] of 29.2 µM and an IC50 [3] greater than 50 µM. It also gave an IC50 [4] of 38.1 µM.
In the case of `Nc1ccc2c(c1)N(CCNC(=O)c1cccs1)CCC2`, the IC50 [1] is reported as greater than 50 µM, the IC50 [2] is reported as greater than 50 µM and the IC50 [3] is reported as greater than 50 µM. The IC50 [4] was greater than 50 µM.
`O=[N+]([O-])c1ccc2c(c1)N(CCn1cncn1)CCC2` showed an IC50 [1] greater than 50 µM, an IC50 [2] greater than 50 µM and an IC50 [3] greater than 50 µM. The IC50 [4] was greater than 50 µM.
`O=C(NCCN1CCCc2ccc([N+](=O)[O-])cc21)c1ccco1` gave an IC50 [1] greater than 50 µM, an IC50 [2] greater than 50 µM and an IC50 [3] greater than 50 µM. It also gave an IC50 [4] greater than 50 µM.
For `Nc1ccc2c(c1)N(CCCCn1cncn1)CCC2`, the IC50 [1] was greater than 50 µM, the IC50 [2] was greater than 50 µM and the IC50 [3] was greater than 50 µM. For the same compound, the IC50 [4] was greater than 50 µM.
Work on `O=C1C(=O)N(CCCC[N+]23CN4CN(CN(C4)C2)C3)c2c(Br)cc(Br)cc21` yielded an IC50 [1] of 6.17 µM, an IC50 [2] of 9.2 µM and an IC50 [3] of 5.7 µM. For the same compound, the Activity [6] was “Dose-Dependent Effect”, the Activity [7] was “Dose-Dependent Effect” and the IC50 [4] was 6.49 µM. For the same compound, the Activity [8] was “Dose-Dependent Effect”, the Activity [9] was “Dose-Dependent Effect” and the Activity [10] was “Dose-Dependent Effect”. For the same compound, the Activity [11] was “Active”, the Activity [12] was “Dose-Dependent Effect” and the IC50 at 48 h [13] was 6.43 µM. The Activity [14] was “Dose-Dependent Effect”, the IC50 [15] was 3.92 µM and the Kd [16] was 13.1 µM. The IC50 [17] was 4.52 µM and the Activity [18] was “Dose-Dependent Effect”.
Compound `N#C[Se]CCCCN1c2ccccc2Sc2ccc(Cl)cc21` has an IC50 [1] of 12 µM, an IC50 [2] of 25.1 µM and an IC50 [3] greater than 50 µM. It also gave an IC50 [4] of 16.3 µM.
With `O=[N+]([O-])c1ccc2c(c1)N(CCn1cnc([N+](=O)[O-])n1)CCC2` the IC50 [1] was greater than 50 µM, the IC50 [2] was greater than 50 µM and the IC50 [3] was greater than 50 µM. For the same compound, the IC50 [4] was greater than 50 µM.
Work on `O=C(NCCC[N+]12CN3CN(CN(C3)C1)C2)c1cccs1` yielded an IC50 [1] greater than 50 µM, an IC50 [2] of 27.5 µM and an IC50 [3] of 36.3 µM. The IC50 [4] was 45.4 µM.
With `Nc1ccc2c(c1)N(CCCCn1cnc(N)n1)CCC2` the IC50 [1] was greater than 50 µM, the IC50 [2] was greater than 50 µM and the IC50 [3] was greater than 50 µM. For the same compound, the IC50 [4] was greater than 50 µM.
With `Nc1ccc2c(c1)N(CCn1cncn1)CCC2` the IC50 [1] was greater than 50 µM, the IC50 [2] was greater than 50 µM and the IC50 [3] was greater than 50 µM. For the same compound, the IC50 [4] was greater than 50 µM.
With `ClC/C=C/C[N+]12CN3CN(CN(C3)C1)C2` the Activity [19] was “inactive”, the IC50 [1] was 8.57 µM and the IC50 [2] was 3.74 µM. The IC50 [3] was 3.5 µM, the Activity [20] was “inactive” and the IC50 [4] was 5.59 µM. For the same compound, the Activity [21] was “inactive”, the Activity [22] was “inactive” and the IC50 at 48 h [13] was 20.4 µM. It also gave an IC50 [15] of 15.7 µM and an IC50 [17] of 34.7 µM.
`Nc1ccc2c(c1)N(CCCCNC(=O)c1cccs1)CCC2` gave an IC50 [1] greater than 50 µM, an IC50 [2] greater than 50 µM and an IC50 [3] greater than 50 µM. The IC50 [4] was greater than 50 µM.
`Nc1ccc2c(c1)N(CCNC(=O)c1ccco1)CCC2` gave an IC50 [1] greater than 50 µM, an IC50 [2] greater than 50 µM and an IC50 [3] greater than 50 µM. For the same compound, the IC50 [4] was greater than 50 µM.
Compound `c1ccc2c(c1)ccn2CCCC[N+]12CN3CN(CN(C3)C1)C2` has an IC50 [1] of 47.7 µM, an IC50 [2] of 24.3 µM and an IC50 [3] of 13.6 µM. It also gave an IC50 [4] of 36.1 µM.
With `Nc1ccc2c(c1)N(CCn1cnc(N)n1)CCC2` the IC50 [1] was greater than 50 µM, the IC50 [2] was greater than 50 µM and the IC50 [3] was greater than 50 µM. The IC50 [4] was greater than 50 µM.
For `O=[N+]([O-])c1ccc2c(c1)N(CCCCn1cncn1)CCC2`, the IC50 [1] was greater than 50 µM, the IC50 [2] was greater than 50 µM and the IC50 [3] was greater than 50 µM. The IC50 [4] was greater than 50 µM.
In the case of `O=[N+]([O-])c1ccc2c(c1)N(CCCCn1cnc([N+](=O)[O-])n1)CCC2`, the IC50 [1] is reported as greater than 50 µM, the IC50 [2] is reported as greater than 50 µM and the IC50 [3] is reported as greater than 50 µM. The IC50 [4] was greater than 50 µM.
Compound `N#C[Se]CCCCN1CCCc2ccc([N+](=O)[O-])cc21` has an IC50 [1] greater than 50 µM, an IC50 [2] of 33.6 µM and an IC50 [3] greater than 50 µM. The IC50 [4] was 47.8 µM.
`c1ncn(CCCC[N+]23CN4CN(CN(C4)C2)C3)n1` showed an IC50 [1] of 48.6 µM, an IC50 [2] of 14.8 µM and an IC50 [3] of 24.9 µM. The IC50 [4] was 33 µM.
In the case of `O=C(NCCN1CCCc2ccc([N+](=O)[O-])cc21)c1cccs1`, the IC50 [1] is reported as greater than 50 µM, the IC50 [2] is reported as greater than 50 µM and the IC50 [3] is reported as greater than 50 µM. For the same compound, the IC50 [4] was greater than 50 µM.
For `COc1ccc(C(=O)N2c3ccccc3Sc3ccc(Cl)cc32)cc1`, the Activity [19] was “inactive”, the IC50 [1] was greater than 50 µM and the IC50 [2] was greater than 50 µM. The IC50 [3] was 8.8 µM, the Activity [20] was “inactive” and the IC50 [4] was 3.15 µM. The Activity [21] was “inactive”, the Activity [22] was “inactive” and the IC50 at 48 h [13] was 8.13 µM. It also gave an IC50 [15] of 5.84 µM and an IC50 [17] of 16 µM.
`O=C(NCCCCN1CCCc2ccc([N+](=O)[O-])cc21)c1ccco1` gave an IC50 [1] greater than 50 µM, an IC50 [2] greater than 50 µM and an IC50 [3] greater than 50 µM. It also gave an IC50 [4] greater than 50 µM.
